We go through seven compounds from paper PMC5796035 (2017).

Test [1] has as its system R12.51 (DNA, aptamer) TGTACCGTCTGAGCGATTCGTACAGTTTCTGGAGGACTGGGCGGGGTGACGGTTATGAGCCAGTCAGTGTTAAGGAGTGC
As to the kind of experiment: competitive elution from immobilised fipronil, fluorescence. The conditions noted are these: 100 mM NaCl, 2 mM MgCl2, 20 mM Tris-HCl.

Test [2] shares this test system. As to the kind of experiment: plate-based fluorescence saturation binding. The note with it: 100 mM NaCl, 2 mM MgCl2; immobilised compound (maleic anhydride plate); 20 mM Tris-HCl; mean of four assays (55, 35, 38, 64 nM).

As for `N#Cc1nn(-c2c(Cl)cc(C(F)(F)F)cc2Cl)c(N)c1S(=O)(=O)C(F)(F)F`, the binding result in test [1] (1 µM, displaces MRE from immobilised fipronil, fipronil/compound ratio 1.07) was “yes”.

`N#Cc1nn(-c2c(Cl)cc(C(F)(F)F)cc2Cl)c(N)c1S(=O)C(F)(F)F` (centres unmarked): the binding result in test [1] (free compound 1 µM, normalized fluorescence 2.413 (no target 0.247)) is “yes”. Besides, the Kd in test [2] turned out to be 48 ± 8 nM.

In the case of `CCS(=O)c1c(C#N)nn(-c2c(Cl)cc(C(F)(F)F)cc2Cl)c1N` (centres unmarked), in test [1] (1 µM, displaces MRE from immobilised fipronil, fipronil/compound ratio 1.10), the binding entry is given as “yes”.

Take `N#Cc1nn(-c2c(Cl)cc(C(F)(F)F)cc2Cl)c(N)c1C(F)(F)F`: in test [1] (1 µM, displaces MRE from immobilised fipronil, fipronil/compound ratio 1.16), the binding result is “yes”.

`CCC(=O)Nc1ccc(Cl)c(Cl)c1`: the binding result in test [1] (1 µM, fipronil/compound ratio 1.52 (5.05 at 200 nM in river water/buffer)) is listed as “weak”.

In the case of `N#Cc1nn(-c2c(Cl)cc(C(F)(F)F)cc2Cl)c(N)c1SC(F)(F)F`, the binding result in test [1] (1 µM, displaces MRE from immobilised fipronil, fipronil/compound ratio 0.89) was “yes”.

Consider `CCNc1nc(Cl)nc(NC(C)C)n1`, for which the binding result in test [1] (1 µM, fipronil/compound ratio 1.23 (4.80 at 200 nM in river water/buffer)) is listed as “weak”.

The term Kd denotes the equilibrium constant for the complex coming apart. Low readings indicate higher affinity, high ones lower affinity.
